In patent publication US20090131356A1, “miR-15, miR-26, miR-31, miR-145, miR-147, miR-188, miR-215, miR-216, miR-331, mmu-miR-292-3P REGULATED GENES AND PATHWAYS AS TARGETS FOR THERAPEUTIC INTERVENTION” (ASURAGEN, INC., priority 2006, published 2009):

System: Du145 human prostate cancer cells
Assay: Long-term growth curve with repeated electroporation, Du145
Format: cell-based
Details: 1.6 μM miRNA electroporated, repeated on days 7 and 14, day 20
Description: The inventors assessed the therapeutic effect of hsa-miR-15a for prostate cancer by using the Du145 human prostate cancer cell line, derived from a brain metastasis (Stone et al., 1978). The inventors conducted growth curve experiments in the presence of miRNA for up to 20 days. Since in vitro transfections of naked interfering RNAs, such as synthetic miRNA, are transient by nature and compromised by the dilution of the miRNA during ongoing cell divisions, miRNA was administered at multiple time points (Bartlett et al., 2006; Bartlett et al., 2007). To accommodate miRNA delivery into a large quantity of cells, the inventors employed the electroporation method for delivery of hsa-miR-15a or negative control miRNA into Du145 human prostate cancer cells. Briefly, 0.5×10^6 Du145 cells were electroporated with 1.6 μM hsa-miR-15a or negative control using the BioRad Gene Pulser Xcell™ instrument (BioRad Laboratories Inc., Hercules, Calif., USA), seeded and propagated in regular growth medium. Experiments were carried out in triplicates. When the control cells reached confluence (days 7 and 14), cells were harvested, counted and electroporated again with the respective miRNAs. To ensure similar treatment of both conditions as well as to accommodate exponential growth, the cell numbers used for the second and third electroporation were titrated down to the lowest count. The population doubling was calculated from these electroporation events using the formula PD=ln(Nf/N0)/ln2 and adjusting for the fact that approximately 72% of newly seeded cells adhere to the plate. Cell counts were extrapolated and plotted on a linear scale (FIG. 10). Arrows represent electroporation days. Standard deviations are included in the graphs.
To evaluate the therapeutic activity of hsa-miR-147 over an extended period of time, the inventors conducted growth curve experiments in the presence of miRNA for up to 21 days. Since in vitro transfections of naked interfering RNAs, such as synthetic miRNA, are transient by nature and compromised by the dilution of the oligo during ongoing cell divisions, miRNA was administered at multiple time points (Bartlett et al., 2006; Bartlett et al., 2007). To accommodate miRNA delivery into a large quantity of cells, the inventors employed the electroporation method to delivery hsa-miR-147 or negative control miRNA into PC3 and Du145 human prostate cancer cells. […] When the control cells reached confluence (days 7 and 14), cells were harvested, counted and electroporated again with the respective miRNAs. […] The population doubling was calculated from these electroporation events using the formula PD=ln(Nf/N0)/ln2 and adjusting for the fact that approximately 72% of newly seeded cells adhere to the plate. […]

hsa-miR-15a: Synthetic pre-miR-15a (Ambion); mature sequence UAGCAGCACAUAAUGGUUUGUG, MIMAT0000068, SEQ ID NO:1 (synthetic pre-miR (Ambion), chemistry not given here; listed as Homo sapiens)
cells relative to cells electroporated with negative control miRNA: 11.8% | inhibition of Du145 cell growth (relative to proliferation of control cells (100%)): 88.2%
